How the values were obtained:
Format in all cases: in vivo
[1] = test system: ryegrass, Italian (Italian ryegrass, Lolium multiflorum); assay: Test A preemergence, directed soil spray, visual injury rating; conditions: approx. 10 d, 0 = no effect, 100 = complete control
In short: (§1)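 In a loam soil and sand blend, either planted seeds got a preemergence directed soil spray or plants at the one- to two-leaf stage (2 to 10 cm tall) were sprayed, using test chemicals in a non-phytotoxic solvent mixture with surfactant. After about 10 d in a greenhouse, injury was visually rated against untreated controls on a 0-100 scale.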

kochia (Kochia scoparia) [2] = assay: as above; conditions: approx. 10 d, 0 = no effect, 100 = complete control
In short: as §1

[3] = test system: barnyardgrass (Echinochloa crus-galli); assay: as above; conditions: approx. 10 d, 0 = no effect, 100 = complete control
In short: as §1

[4] = test system: ragweed (common ragweed, Ambrosia elation); assay: as above; conditions: approx. 10 d, 0 = no effect, 100 = complete control
In short: as §1

[5] = test system: pigweed (Amaranthus retroflexus); assay: as above; conditions: approx. 10 d, 0 = no effect, 100 = complete control
In short: as §1

[6] = test system: foxtail, giant (giant foxtail, Setaria faberii); assay: as above; conditions: approx. 10 d, 0 = no effect, 100 = complete control
In short: as §1

[7] = test system: ryegrass, Italian (Italian ryegrass, Lolium multiflorum); assay: Test A postemergence application, visual injury rating; conditions: approx. 10 d, 0 = no effect, 100 = complete control
In short: as §1

kochia (Kochia scoparia) [8] = assay: as above; conditions: approx. 10 d, 0 = no effect, 100 = complete control
In short: as §1

[9] = test system: wheat (Triticum aestivum); assay: as above; conditions: approx. 10 d, 0 = no effect, 100 = complete control
In short: as §1

[10] = test system: blackgrass (Alopecurus myosuroides); assay: as above; conditions: approx. 10 d, 0 = no effect, 100 = complete control
In short: as §1

[11] = test system: barnyardgrass (Echinochloa crus-galli); assay: as above; conditions: approx. 10 d, 0 = no effect, 100 = complete control
In short: as §1

corn (Zea mays) = assay: as above; conditions: approx. 10 d, 0 = no effect, 100 = complete control
In short: as §1

[12] = test system: galium (catchweed bedstraw, Galium aparine); assay: as above; conditions: approx. 10 d, 0 = no effect, 100 = complete control
In short: as §1

[13] = test system: ragweed (common ragweed, Ambrosia elation); assay: as above; conditions: approx. 10 d, 0 = no effect, 100 = complete control
In short: as §1

[14] = test system: pigweed (Amaranthus retroflexus); assay: as above; conditions: approx. 10 d, 0 = no effect, 100 = complete control
In short: as §1

[15] = test system: foxtail, giant (giant foxtail, Setaria faberii); assay: as above; conditions: approx. 10 d, 0 = no effect, 100 = complete control
In short: as §1

[16] = test system: ducksalad (Heteranthera limosa); assay: Test B flooded paddy test, visual plant response rating; conditions: 250 g ai/ha; applied to paddy water at 2-leaf stage; rated after 13 to 15 days; scale 0 to 100, 0 is no effect, 100 is complete control
In short: (§2)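 Visual injury score 0 to 100 against controls (0 = no effect, 100 = complete control), taken 13–15 days after treatment. Test compound went into the paddy water of pots flooded 3 cm over the soil surface, water kept at that depth in greenhouse.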

rice (Oryza sativa) = assay: as above; conditions: 250 g ai/ha; applied to paddy water at 2-leaf stage; rated after 13 to 15 days; scale 0 to 100, 0 is no effect, 100 is complete control
In short: as §2

[17] = test system: barnyardgrass (Echinochloa crus-galli); assay: as above; conditions: 250 g ai/ha; applied to paddy water at 2-leaf stage; rated after 13 to 15 days; scale 0 to 100, 0 is no effect, 100 is complete control
In short: as §2

[18] = test system: sedge, umbrella (small-flower umbrella sedge, Cyperus difformis); assay: as above; conditions: 250 g ai/ha; applied to paddy water at 2-leaf stage; rated after 13 to 15 days; scale 0 to 100, 0 is no effect, 100 is complete control
In short: as §2

## Cc1ccc(C2Cn3cnnc3C2C(=O)Nc2ccccc2F)cc1 (stereo not drawn) [Compound 13]
[1]; 125 g ai/ha
  Ryegrass, Italian plant response rating (0 to 100 scale): 0
[1]; 500 g ai/ha
  Ryegrass, Italian plant response rating (0 to 100 scale): 0
Kochia (Kochia scoparia) [2]; 125 g ai/ha
  Kochia plant response rating (0 to 100 scale): 70
Kochia (Kochia scoparia) [2]; 500 g ai/ha
  Kochia plant response rating (0 to 100 scale): 70
[3]; 125 g ai/ha
  Barnyardgrass plant response rating (0 to 100 scale): 60
[3]; 500 g ai/ha
  Barnyardgrass plant response rating (0 to 100 scale): 70
[4]; 125 g ai/ha
  Ragweed plant response rating (0 to 100 scale): 0
[4]; 500 g ai/ha
  Ragweed plant response rating (0 to 100 scale): 80
[5]; 125 g ai/ha
  Pigweed plant response rating (0 to 100 scale): 0
[5]; 500 g ai/ha
  Pigweed plant response rating (0 to 100 scale): 0
[6]; 125 g ai/ha
  Foxtail, Giant plant response rating (0 to 100 scale): 70
[6]; 500 g ai/ha
  Foxtail, Giant plant response rating (0 to 100 scale): 90
[7]; 125 g ai/ha
  Ryegrass, Italian plant response rating (0 to 100 scale): 0
[7]; 500 g ai/ha
  Ryegrass, Italian plant response rating (0 to 100 scale): 0
Kochia (Kochia scoparia) [8]; 125 g ai/ha
  Kochia plant response rating (0 to 100 scale): 0
Kochia (Kochia scoparia) [8]; 500 g ai/ha
  Kochia plant response rating (0 to 100 scale): 30
[9]; 125 g ai/ha
  Wheat plant response rating (0 to 100 scale): 0
[9]; 500 g ai/ha
  Wheat plant response rating (0 to 100 scale): 0
[10]; 125 g ai/ha
  Blackgrass plant response rating (0 to 100 scale): 20
[10]; 500 g ai/ha
  Blackgrass plant response rating (0 to 100 scale): 40
[11]; 125 g ai/ha
  Barnyardgrass plant response rating (0 to 100 scale): 50
[11]; 500 g ai/ha
  Barnyardgrass plant response rating (0 to 100 scale): 90
Corn (Zea mays); 125 g ai/ha
  Corn plant response rating (0 to 100 scale): 0
Corn (Zea mays); 500 g ai/ha
  Corn plant response rating (0 to 100 scale): 20
[12]; 125 g ai/ha
  Galium plant response rating (0 to 100 scale): 40
[12]; 500 g ai/ha
  Galium plant response rating (0 to 100 scale): 40
[13]; 125 g ai/ha
  Ragweed plant response rating (0 to 100 scale): 0
[13]; 500 g ai/ha
  Ragweed plant response rating (0 to 100 scale): 30
[14]; 125 g ai/ha
  Pigweed plant response rating (0 to 100 scale): 0
[14]; 500 g ai/ha
  Pigweed plant response rating (0 to 100 scale): 0
[15]; 125 g ai/ha
  Foxtail, Giant plant response rating (0 to 100 scale): 60
[15]; 500 g ai/ha
  Foxtail, Giant plant response rating (0 to 100 scale): 80
[16]
  Plant response rating, Flood, Ducksalad: 45
Rice (Oryza sativa)
  Plant response rating, Flood, Rice: 20
[17]
  Plant response rating, Flood, Barnyardgrass: 40
[18]
  Plant response rating, Flood, Sedge, Umbrella: 0

## CSc1ccccc1NC(=O)C1c2nnc(C)n2CC1c1ccc(C)c(C)c1 (stereo not drawn) [Compound 14]
[1]; 125 g ai/ha
  Ryegrass, Italian plant response rating (0 to 100 scale): 0
[1]; 500 g ai/ha
  Ryegrass, Italian plant response rating (0 to 100 scale): 0
Kochia (Kochia scoparia) [2]; 125 g ai/ha
  Kochia plant response rating (0 to 100 scale): 0
Kochia (Kochia scoparia) [2]; 500 g ai/ha
  Kochia plant response rating (0 to 100 scale): 0
[3]; 125 g ai/ha
  Barnyardgrass plant response rating (0 to 100 scale): 0
[3]; 500 g ai/ha
  Barnyardgrass plant response rating (0 to 100 scale): 30
[4]; 125 g ai/ha
  Ragweed plant response rating (0 to 100 scale): 0
[4]; 500 g ai/ha
  Ragweed plant response rating (0 to 100 scale): 0
[5]; 125 g ai/ha
  Pigweed plant response rating (0 to 100 scale): 0
[5]; 500 g ai/ha
  Pigweed plant response rating (0 to 100 scale): 0
[6]; 125 g ai/ha
  Foxtail, Giant plant response rating (0 to 100 scale): 0
[6]; 500 g ai/ha
  Foxtail, Giant plant response rating (0 to 100 scale): 60
[7]; 125 g ai/ha
  Ryegrass, Italian plant response rating (0 to 100 scale): 0
[7]; 500 g ai/ha
  Ryegrass, Italian plant response rating (0 to 100 scale): 0
Kochia (Kochia scoparia) [8]; 125 g ai/ha
  Kochia plant response rating (0 to 100 scale): 0
Kochia (Kochia scoparia) [8]; 500 g ai/ha
  Kochia plant response rating (0 to 100 scale): 0
[9]; 125 g ai/ha
  Wheat plant response rating (0 to 100 scale): 0
[9]; 500 g ai/ha
  Wheat plant response rating (0 to 100 scale): 0
[10]; 125 g ai/ha
  Blackgrass plant response rating (0 to 100 scale): 0
[10]; 500 g ai/ha
  Blackgrass plant response rating (0 to 100 scale): 20
[11]; 125 g ai/ha
  Barnyardgrass plant response rating (0 to 100 scale): 0
[11]; 500 g ai/ha
  Barnyardgrass plant response rating (0 to 100 scale): 20
Corn (Zea mays); 125 g ai/ha
  Corn plant response rating (0 to 100 scale): 0
Corn (Zea mays); 500 g ai/ha
  Corn plant response rating (0 to 100 scale): 0
[12]; 125 g ai/ha
  Galium plant response rating (0 to 100 scale): 0
[12]; 500 g ai/ha
  Galium plant response rating (0 to 100 scale): 0
[13]; 125 g ai/ha
  Ragweed plant response rating (0 to 100 scale): 0
[13]; 500 g ai/ha
  Ragweed plant response rating (0 to 100 scale): 0
[14]; 125 g ai/ha
  Pigweed plant response rating (0 to 100 scale): 0
[14]; 500 g ai/ha
  Pigweed plant response rating (0 to 100 scale): 0
[15]; 125 g ai/ha
  Foxtail, Giant plant response rating (0 to 100 scale): 0
[15]; 500 g ai/ha
  Foxtail, Giant plant response rating (0 to 100 scale): 20
[16]
  Plant response rating, Flood, Ducksalad: 60
Rice (Oryza sativa)
  Plant response rating, Flood, Rice: 0
[17]
  Plant response rating, Flood, Barnyardgrass: 20
[18]
  Plant response rating, Flood, Sedge, Umbrella: 0

## CCc1ccc(C2Cn3c(C)nnc3C2C(=O)Nc2ccccc2SC)cc1 (stereo not drawn) [Compound 15]
[1]; 125 g ai/ha
  Ryegrass, Italian plant response rating (0 to 100 scale): 0
[1]; 500 g ai/ha
  Ryegrass, Italian plant response rating (0 to 100 scale): 0
Kochia (Kochia scoparia) [2]; 125 g ai/ha
  Kochia plant response rating (0 to 100 scale): 0
Kochia (Kochia scoparia) [2]; 500 g ai/ha
  Kochia plant response rating (0 to 100 scale): 0
[3]; 125 g ai/ha
  Barnyardgrass plant response rating (0 to 100 scale): 0
[3]; 500 g ai/ha
  Barnyardgrass plant response rating (0 to 100 scale): 0
[4]; 125 g ai/ha
  Ragweed plant response rating (0 to 100 scale): 0
[4]; 500 g ai/ha
  Ragweed plant response rating (0 to 100 scale): 0
[5]; 125 g ai/ha
  Pigweed plant response rating (0 to 100 scale): 0
[5]; 500 g ai/ha
  Pigweed plant response rating (0 to 100 scale): 0
[6]; 125 g ai/ha
  Foxtail, Giant plant response rating (0 to 100 scale): 0
[6]; 500 g ai/ha
  Foxtail, Giant plant response rating (0 to 100 scale): 0
[7]; 125 g ai/ha
  Ryegrass, Italian plant response rating (0 to 100 scale): 0
[7]; 500 g ai/ha
  Ryegrass, Italian plant response rating (0 to 100 scale): 0
Kochia (Kochia scoparia) [8]; 125 g ai/ha
  Kochia plant response rating (0 to 100 scale): 0
Kochia (Kochia scoparia) [8]; 500 g ai/ha
  Kochia plant response rating (0 to 100 scale): 0
[9]; 125 g ai/ha
  Wheat plant response rating (0 to 100 scale): 0
[9]; 500 g ai/ha
  Wheat plant response rating (0 to 100 scale): 0
[10]; 125 g ai/ha
  Blackgrass plant response rating (0 to 100 scale): 0
[10]; 500 g ai/ha
  Blackgrass plant response rating (0 to 100 scale): 0
[11]; 125 g ai/ha
  Barnyardgrass plant response rating (0 to 100 scale): 0
[11]; 500 g ai/ha
  Barnyardgrass plant response rating (0 to 100 scale): 0
Corn (Zea mays); 125 g ai/ha
  Corn plant response rating (0 to 100 scale): 0
Corn (Zea mays); 500 g ai/ha
  Corn plant response rating (0 to 100 scale): 0
[12]; 125 g ai/ha
  Galium plant response rating (0 to 100 scale): 0
[12]; 500 g ai/ha
  Galium plant response rating (0 to 100 scale): 0
[13]; 125 g ai/ha
  Ragweed plant response rating (0 to 100 scale): 0
[13]; 500 g ai/ha
  Ragweed plant response rating (0 to 100 scale): 0
[14]; 125 g ai/ha
  Pigweed plant response rating (0 to 100 scale): 0
[14]; 500 g ai/ha
  Pigweed plant response rating (0 to 100 scale): 0
[15]; 125 g ai/ha
  Foxtail, Giant plant response rating (0 to 100 scale): 0
[15]; 500 g ai/ha
  Foxtail, Giant plant response rating (0 to 100 scale): 0
[16]
  Plant response rating, Flood, Ducksalad: 50
Rice (Oryza sativa)
  Plant response rating, Flood, Rice: 20
[17]
  Plant response rating, Flood, Barnyardgrass: 0
[18]
  Plant response rating, Flood, Sedge, Umbrella: 0

— US10442807B2, “Aryl substituted bicyclic compounds as herbicides” (FMC Corporation, priority 2015, dated 2019)
